Data: patent publication US12630600B2 (MEDIMMUNE LIMITED, priority 2022, dated 2026)
Read-outs that look alike come from different tables or passages of the source. Starred links: 1 amine or outer side, 2 acyl side, 3 side chain; linkers in the order of their positions; H or OH if unused. Non-standard residues stand in square brackets, D forms with d. Residues, ends and D or L forms follow the SMILES beside them. Groups on a side chain read outwards from the residue. *: point of attachment. C20 diacid = O=C(O)CCCCCCCCCCCCCCCCCCC(=O)*; γGlu = O=C(O)[C@H](CCC(=O)[*:2])N[*:1]; Palmitoyl = CCCCCCCCCCCCCCCC(=O)*; αMeF = C[C@](N)(Cc1ccccc1)C(=O)O; PEG2 = NCCOCCOCCC(=O)O; AEEA = NCCOCCOCC(=O)O; Aib = CC(C)(N)C(=O)O

Key:
[1] = molecular target: T1, human GLP-1 receptor (hGLP-1R) (Homo sapiens, UniProt P43220); assay: cAMP production (HTRF) in CHO cells expressing human GLP-1 receptor; format: cell-based; conditions: for EC50: Table 8, peptides modified at position 24, geometric mean, CHO cells, cAMP; for % Relative Potency Ratio: % GLP-1R activity relative to GLP-1 / % GlucR activity relative to glucagon
T1 construct: expressed in transfected cells; host or cells: CHO

[2] = molecular target: T2, human glucagon receptor (hGCGR) (Homo sapiens, UniProt P47871); assay: cAMP production (HTRF) in CHO cells expressing human glucagon receptor; format: cell-based; conditions: CHO cells
T2 construct: expressed in transfected cells; host or cells: CHO
Protocol: Cells were re-suspended in assay buffer at a batch-dependent optimized concentration (typically hGLP-1R cells at 1×10^5 cells/mL, hGCGR cells at 2×10^5 cells/mL).
Cells were added to the assay plate using a multidrop dispenser and incubated at room temperature for 30 minutes before measuring the cAMP level using a cAMP dynamic 2 homogeneous time resolved Fluorescence (HTRF) kit (Cisbio Bioassays #62AM4PEJ) following the two-step protocol as per manufacturer's recommendations. In brief, anti-cAMP cryptate (donor fluorophore) and cAMP-d2 (acceptor fluorophore) were made up separately by diluting each 1 in 20 in conjugate and lysis buffer provided in the kit. Anti-cAMP cryptate was added to all wells of the assay plate, followed by cAMP-d2 added to all wells except non-specific binding (NSB) wells (to which conjugate and lysis buffer was added).
Data was transformed to % Delta F as described in the manufacturer's guidelines and analyzed by 4-parameter logistic fit to determine EC50 values.

T2 sequence (P47871 26-477): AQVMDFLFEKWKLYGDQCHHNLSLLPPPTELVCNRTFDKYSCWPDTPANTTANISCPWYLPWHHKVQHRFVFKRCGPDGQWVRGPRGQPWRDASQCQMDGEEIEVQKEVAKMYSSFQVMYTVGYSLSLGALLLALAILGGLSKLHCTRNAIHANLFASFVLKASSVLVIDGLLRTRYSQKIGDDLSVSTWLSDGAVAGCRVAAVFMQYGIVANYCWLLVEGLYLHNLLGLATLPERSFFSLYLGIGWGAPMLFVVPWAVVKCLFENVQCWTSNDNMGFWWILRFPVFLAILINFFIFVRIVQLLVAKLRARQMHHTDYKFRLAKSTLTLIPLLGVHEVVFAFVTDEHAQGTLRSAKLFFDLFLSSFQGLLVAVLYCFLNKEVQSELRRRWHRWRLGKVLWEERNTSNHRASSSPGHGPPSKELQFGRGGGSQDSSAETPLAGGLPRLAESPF
T1 sequence (P43220 24-463): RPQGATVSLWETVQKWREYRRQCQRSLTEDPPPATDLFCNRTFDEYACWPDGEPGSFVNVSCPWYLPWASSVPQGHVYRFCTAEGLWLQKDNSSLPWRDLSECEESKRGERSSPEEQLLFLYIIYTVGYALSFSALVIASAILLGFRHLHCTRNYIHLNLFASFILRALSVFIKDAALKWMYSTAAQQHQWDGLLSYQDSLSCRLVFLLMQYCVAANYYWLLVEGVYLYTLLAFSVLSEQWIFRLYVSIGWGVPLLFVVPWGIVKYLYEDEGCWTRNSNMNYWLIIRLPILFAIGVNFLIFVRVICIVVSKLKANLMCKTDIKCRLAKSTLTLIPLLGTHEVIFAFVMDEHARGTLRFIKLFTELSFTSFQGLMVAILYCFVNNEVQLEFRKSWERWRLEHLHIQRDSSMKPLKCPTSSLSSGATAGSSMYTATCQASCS

SMILES | EC50 ([1]; read-out: hGLP-1R EC50) | % Relative Potency Ratio ([1]; Table 8) | EC50 ([2]; Table 8, peptides modified at position 24, geometric mean, read-out: hGluc-R EC50) | EC50 ([1]; hGLP-1R EC50 (pM)) | EC50 ([2]; hGluc-R EC50 (pM), Table 8, peptides modified at position 24, geometric mean) | % Relative Potency Ratio ([1]; Table 9) | EC50 ([2]; Table 9, peptides modified at position 10, geometric mean, read-out: hGluc-R EC50)
CC[C@H](C)[C@H](NC(=O)C(C)(C)NC(=O)[C@H](CCCCNC(=O)COCCOCCNC(=O)COCCOCCNC(=O)CC[C@H](NC(=O)CC[C@H](NC(=O)CCCCCCCCCCCCCCCCCCC(=O)O)C(=O)O)C(=O)O)NC(=O)[C@@H](NC(=O)[C@](C)(Cc1ccccc1)NC(=O)[C@H](CC(=O)O)NC(=O)[C@H](CCC(N)=O)NC(=O)[C@H](C)NC(=O)[C@H](C)NC(=O)[C@H](CCCNC(=N)N)NC(=O)[C@H](CO)NC(=O)[C@H](CC(=O)O)NC(=O)[C@H](CC(C)C)NC(=O)[C@](C)(Cc1ccccc1)NC(=O)[C@H](CCCCN)NC(=O)[C@H](CO)NC(=O)[C@@H](NC(=O)[C@H](CC(=O)O)NC(=O)[C@H](CO)NC(=O)[C@@H](NC(=O)[C@](C)(Cc1ccccc1)NC(=O)[C@H](CO)NC(=O)CNC(=O)[C@H](Cc1c[nH]cn1)NC(=O)C(C)(C)NC(=O)[C@@H](N)Cc1c[nH]cn1)[C@@H](C)O)C(C)C)C(C)C)C(=O)N[C@@H](C)C(=O)N[C@@H](CC(N)=O)C(=O)N[C@H](C(=O)NCC(=O)NCC(N)=O)[C@@H](C)O [Peptide 376] (H-H[Aib]HGS[αMeF]TSDVSK[αMeF]LDSRAAQD[αMeF]VK([AEEA-AEEA-γGlu-γGlu-C20 diacid])[Aib]IANTGG-NH2; N-terminus assumed) | 156 pM | 10.8 | 853 pM |  |  |  | 
CC[C@H](C)[C@H](NC(=O)[C@H](Cc1c[nH]c2ccccc12)NC(=O)[C@H](CCCCNC(=O)CC[C@H](NC(=O)CC[C@H](NC(=O)CCOCCOCCNC(=O)CC[C@H](NC(=O)CC[C@H](NC(=O)CCCCCCCCCCCCCCCCCCC(=O)O)C(=O)O)C(=O)O)C(=O)O)C(=O)O)NC(=O)[C@@H](NC(=O)[C@H](Cc1ccccc1)NC(=O)[C@H](CC(=O)O)NC(=O)[C@H](CCC(N)=O)NC(=O)[C@H](C)NC(=O)[C@H](C)NC(=O)[C@H](CCC(N)=O)NC(=O)[C@H](CO)NC(=O)[C@H](CC(=O)O)NC(=O)[C@H](CC(C)C)NC(=O)[C@](C)(Cc1ccccc1)NC(=O)[C@H](CCCCN)NC(=O)[C@H](CO)NC(=O)[C@@H](NC(=O)[C@H](CC(=O)O)NC(=O)[C@H](CO)NC(=O)[C@@H](NC(=O)[C@](C)(Cc1ccccc1)NC(=O)[C@H](CO)NC(=O)CNC(=O)[C@H](Cc1c[nH]cn1)NC(=O)C(C)(C)NC(=O)[C@@H](N)Cc1c[nH]cn1)[C@@H](C)O)C(C)C)C(C)C)C(=O)N[C@@H](C)C(=O)N[C@@H](CC(N)=O)C(=O)N[C@H](C(N)=O)[C@@H](C)O [Peptide 357] |  | 1.2 |  | 917 pM | 550 pM |  | 
CCCCCCCCCCCCCCCC(=O)N[C@@H](CCC(=O)NCCOCCOCCC(=O)NCCOCCOCCC(=O)NCCCC[C@H](NC(=O)[C@H](CC(=O)O)NC(=O)[C@H](CO)NC(=O)[C@@H](NC(=O)[C@](C)(Cc1ccccc1)NC(=O)[C@H](CO)NC(=O)CNC(=O)[C@H](CCC(N)=O)NC(=O)C(C)(C)NC(=O)[C@@H](N)Cc1c[nH]cn1)[C@@H](C)O)C(=O)N[C@@H](CO)C(=O)N[C@@H](CCCCN)C(=O)N[C@H](C(=O)N[C@@H](CC(C)C)C(=O)N[C@@H](CC(=O)O)C(=O)N[C@@H](CO)C(=O)N[C@@H](CCCNC(=N)N)C(=O)N[C@@H](C)C(=O)N[C@@H](C)C(=O)N[C@@H](CCC(N)=O)C(=O)N[C@@H](CC(=O)O)C(=O)N[C@@](C)(Cc1ccccc1)C(=O)N[C@H](C(=O)N[C@@H](CCC(=O)O)C(=O)N[C@@H](Cc1c[nH]c2ccccc12)C(=O)N[C@H](C(=O)N[C@@H](C)C(=O)N[C@@H](CC(N)=O)C(=O)N[C@H](C(N)=O)[C@@H](C)O)[C@@H](C)CC)C(C)C)[C@@H](C)CC)C(=O)O [Peptide 396] (H-H[Aib]QGS[αMeF]TSDK([PEG2-PEG2-γGlu-Palmitoyl])SKILDSRAAQD[αMeF]VEWIANT-NH2) |  |  |  |  |  | 40.2 | 11.8 pM
